We go through 5 compounds from patent US20100261731A1, “Method for Treating a Disease, Disorder or Adverse Effect Caused by an Elevated Serum Concentration of an UGT1A1 Substrate” (Abbott Laboratories, priority 2009, published 2010).

Series [1] can be described thus: Ethinylestradiol pharmacokinetics alone and with ritonavir in healthy female volunteers. The format is in vivo, human. On the procedure: This was an open-label, single-center study in healthy female volunteers who had not received an oral contraceptive for a minimum of six months prior to study start. Subjects received the first dose of oral contraceptive containing 50 μg of ethinyl estradiol on Day 1. […] On Day 15, 300 mg q12h was administered, 400 mg q12h was given on Day 16, and 500 mg q12h was administered thereafter. […] Blood samples for ethinylestradiol concentrations were collected for 48 h after each of the oral contraceptive doses.
Twenty-seven subjects were enrolled in the study. […] Data from these four subjects were therefore excluded from summary statistics. The mean ±SD age of the 23 subjects who completed the study was 34±10 yrs (range 19 to 45 yrs), the mean ±SD weight was 67.3±10.9 kg (range 50.8 to 90.3 kg), and the mean ±SD height was 167±7 cm (range 155 to 180 cm). […]
Analysis of serum samples for determination of ethinyl estradiol was performed at Pharmaco LSR, Richmond, Va. Ethinylestradiol serum concentrations were determined using a gas chromatography/mass spectrometry (GC/MS) method. […] This method has been validated over 17α-ethinylestradiol concentrations ranging from 2.00 to 256 pg/mL for a 1.0 mL serum volume, with a minimum quantitation limit of 2.00 pg/mL.
Ethinylestradiol pharmacokinetic parameters were estimated following two single doses, on Day 1 and Day 29, using noncompartmental methods. The pharmacokinetic parameters were calculated using the intended sampling times; all samples were collected within 10% of intended sampling times. […] The area under the plasma concentration-time curve (AUC∞) was calculated as the sum of AUCt, the area up to the last measurable concentration computed using the linear trapezoidal rule, and the extrapolation to infinity, calculated as the quotient of the last measurable concentration (Ct) and the terminal elimination rate constant (β). The terminal elimination rate constant was calculated as the negative of the slope of the regression of the logarithms of the plasma concentrations vs. time, starting at 18 h post-dose. […]

In a further series the test system is UGT1A1. Description: Hepatic 17α-ethinylestradiol glucuronidation activity in liver microsomes of treated rats. (Liver microsomes are vesicles of endoplasmic reticulum, rich in cytochrome P450 enzymes.)
In series [2] the test system is UDP glucuronosyltransferase, exon 1. Kind of series: Rat liver microarray (Affymetrix Rat U34), UGT1A probe induction. Type of series: in vivo, Sprague-Dawley rats.
Series [3] has as its system UDP-glucuronosyltransferase 1 family, member 1. The description is as above. The settings on record: 3-Day Studies. The format is in vivo, Sprague-Dawley rats.
The subject of series [4] is 1-naphthol glucuronidation. Description: Hepatic 1-naphthol glucuronidation activity in liver microsomes of treated rats.
For series [5], the system named is 3-methylcholanthrene-inducible UDP-glucuronosyltransferase. Description: Rat liver microarray (Affymetrix Rat U34), UGT1A probe induction. The format is in vivo, Sprague-Dawley rats.
Series [6] concerns UDP-glucuronosyltransferase 1A (UGT1A). Kind of series: Rat liver microarray, all UGT1A probe sets. The format is in vivo, Sprague-Dawley rats. Conditions: dose levels of 100 mg/kg and higher, after 1 and 3 days of treatment.
Series [7] deals with bilirubin conjugation in human microsomes. Conditions: in vitro system of human microsomes; cited from earlier work.
Another series addresses T1, UGT1A1 isoform (Homo sapiens, UniProt P22309).
T1 sequence (P22309 26-533): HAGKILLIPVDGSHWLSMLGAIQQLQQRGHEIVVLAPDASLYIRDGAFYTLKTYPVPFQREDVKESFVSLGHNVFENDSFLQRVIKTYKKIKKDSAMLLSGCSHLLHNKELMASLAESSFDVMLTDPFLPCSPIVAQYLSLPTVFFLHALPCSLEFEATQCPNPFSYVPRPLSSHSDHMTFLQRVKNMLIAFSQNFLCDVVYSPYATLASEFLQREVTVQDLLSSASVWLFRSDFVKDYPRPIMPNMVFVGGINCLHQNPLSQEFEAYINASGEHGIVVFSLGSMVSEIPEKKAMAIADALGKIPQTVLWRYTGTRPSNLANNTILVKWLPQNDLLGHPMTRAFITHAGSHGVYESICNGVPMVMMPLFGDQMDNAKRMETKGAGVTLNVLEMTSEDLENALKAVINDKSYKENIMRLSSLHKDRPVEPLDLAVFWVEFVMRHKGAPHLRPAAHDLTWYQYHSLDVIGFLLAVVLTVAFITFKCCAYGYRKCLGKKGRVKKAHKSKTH
The settings on record: human cells transfected with the UGT1A1 isoform; cited from earlier work.

The conditions of series [8]: subjects taking atazanavir, one study; cited from earlier work.
Series [9] concerns bilirubin-conjugating activity. The settings on record: cited from earlier work.
[10] abbreviates: serum ethinylestradiol, single 50 μg oral contraceptive dose, Mean ± SD, n = 23, alone Day 1, with ritonavir 500 mg q12h Day 29.
Where [11] appears, read: 1-Day Studies, 50 mg/kg oral (second column).
The mark [12] stands for this setting: 3-Day Studies, 100 mg/kg oral daily.
The mark [13] stands for this setting: 3-Day Studies, 125 mg/kg oral daily.

As a reminder, the Tmax is the time at which the peak concentration occurs. Consider `C#C[C@]1(O)CC[C@H]2[C@@H]3CCc4cc(O)ccc4[C@H]3CC[C@@]21C` [Ethinylestradiol, 17α-ethinylestradiol], for which, in series [1] (setting [10]), the time of peak concentration (Tmax) is 4.0 ± 1.7 h and the “β (terminal elimination rate constant)” value stood at 0.0407 ± 0.0082 h⁻¹. Further, in series [1] (single dose of oral contraceptive), the “time at which serum ethinylestradiol concentrations peaked post-dose” value is recorded as “approximately 4 h”.

As for `CC(C)c1nc(CN(C)C(=O)N[C@H](C(=O)N[C@@H](Cc2ccccc2)C[C@H](O)[C@H](Cc2ccccc2)NC(=O)OCc2cncs2)C(C)C)cs1` [Ritonavir], the 17α-ethinylestradiol glucuronidation is recorded as 54.5 ± 24.0 pmol/mg/min in the series with UGT1A1 (Females, T1: ritonavir 15 mg/kg oral daily 14 days, 100 μM substrate); 336.4 ± 75.8 pmol/mg/min with UGT1A1 (Females, T1: ritonavir 15 mg/kg oral daily 14 days, 250 μM substrate); 146.5 ± 26.0 pmol/mg/min in the series with UGT1A1 (Females, T2: ritonavir 50 mg/kg oral daily 14 days, 100 μM substrate); 590.9 ± 101.2 pmol/mg/min with UGT1A1 (Females, T2: ritonavir 50 mg/kg oral daily 14 days, 250 μM substrate); 58.8 ± 2.2 pmol/mg/min in the series with UGT1A1 (Males, T1: ritonavir 15 mg/kg oral daily 14 days, 100 μM substrate); 171.8 ± 38.1 pmol/mg/min in the series with UGT1A1 (Males, T1: ritonavir 15 mg/kg oral daily 14 days, 250 μM substrate). Further, the 17α-ethinylestradiol glucuronidation with UGT1A1 (Males, T2: ritonavir 50 mg/kg oral daily 14 days, 100 μM substrate) is listed as 34.0 ± 10.0 pmol/mg/min; in the series with UGT1A1 (Males, T2: ritonavir 50 mg/kg oral daily 14 days, 250 μM substrate), 290.1 ± 45.6 pmol/mg/min. Moreover, the “glucuronidation of 17α-ethinylestradiol, a UGT1A1 substrate” value in the series on UGT1A1 (both male and female rats) is on record as “significantly increase”. In addition, in the series with UGT1A1 (both male and female rats treated with 50 mg/kg/day), the “increase in glucuronidation of 17α-ethinylestradiol” value worked out at 2 fold. Moreover, the Fold change was 2.43 fold in series [2] (setting [11]); 3.96 fold in series [2] (setting [12]); 5.06 fold in [2] (setting [13]); 1.31 fold in series [3] (50 mg/kg oral daily (first column)); 1.33 fold in series [3] (50 mg/kg oral daily (second column)); 1.83 fold in [5] (1-Day Studies, 20 mg/kg oral (first column)). The Fold change worked out at 1.54 fold in series [5] (1-Day Studies, 20 mg/kg oral (second column)); 1.63 fold in [5] (1-Day Studies, 50 mg/kg oral (first column)); 2.1 fold in series [5] (setting [11]); 1.54 fold in series [5] (3-Day Studies, 50 mg/kg oral daily (first column)); 1.85 fold in series [5] (3-Day Studies, 50 mg/kg oral daily (second column)); 1.97 fold in [5] (3-Day Studies, 75 mg/kg oral daily). The Fold change is on record as 2.26 fold in series [5] (setting [12]) and 2.25 fold in series [5] (setting [13]). Also, the 1-naphthol glucuronidation in series [4] (Females, T1: ritonavir 15 mg/kg oral daily 14 days, 50 μM substrate) is recorded as 7.3 ± 1.2 nmol/mg/min; in series [4] (Females, T1: ritonavir 15 mg/kg oral daily 14 days, 1000 μM substrate), 33.7 ± 5.2 nmol/mg/min; in series [4] (Females, T2: ritonavir 50 mg/kg oral daily 14 days, 50 μM substrate) it was 10.0 ± 2.7 nmol/mg/min; in [4] (Females, T2: ritonavir 50 mg/kg oral daily 14 days, 1000 μM substrate) it was 37.7 ± 4.9 nmol/mg/min; in series [4] (Males, T1: ritonavir 15 mg/kg oral daily 14 days, 50 μM substrate) it was 9.5 ± 1.5 nmol/mg/min; in series [4] (Males, T1: ritonavir 15 mg/kg oral daily 14 days, 1000 μM substrate), 23.0 ± 2.5 nmol/mg/min. Moreover, the 1-naphthol glucuronidation in series [4] (Males, T2: ritonavir 50 mg/kg oral daily 14 days, 50 μM substrate) amounted to 8.3 ± 1.4 nmol/mg/min; in series [4] (Males, T2: ritonavir 50 mg/kg oral daily 14 days, 1000 μM substrate) it was 22.8 ± 4.3 nmol/mg/min. Also, in [6], the “UG1A levels for all probe sets” value is recorded as “consistent increase”.

In the case of `CCC1(c2ccccc2)C(=O)NC(=O)NC1=O` [Phenobarbitol], the 17α-ethinylestradiol glucuronidation worked out at 91.0 ± 34.0 pmol/mg/min in the series on UGT1A1 (Females, T3: phenobarbital 50 mg/kg intraperitoneal daily 4 days, 100 μM substrate); 360.6 ± 88.1 pmol/mg/min with UGT1A1 (Females, T3: phenobarbital 50 mg/kg intraperitoneal daily 4 days, 250 μM substrate); 45.1 ± 16.5 pmol/mg/min with UGT1A1 (Males, T3: phenobarbital 50 mg/kg intraperitoneal daily 4 days, 100 μM substrate); 258.5 ± 98.5 pmol/mg/min with UGT1A1 (Males, T3: phenobarbital 50 mg/kg intraperitoneal daily 4 days, 250 μM substrate). Also, the 1-naphthol glucuronidation is listed as 9.3 ± 0.4 nmol/mg/min in [4] (Females, T3: phenobarbital 50 mg/kg intraperitoneal daily 4 days, 50 μM substrate); 46.4 ± 8.6 nmol/mg/min in [4] (Females, T3: phenobarbital 50 mg/kg intraperitoneal daily 4 days, 1000 μM substrate); 15.4 ± 3.1 nmol/mg/min in series [4] (Males, T3: phenobarbital 50 mg/kg intraperitoneal daily 4 days, 50 μM substrate); 41.0 ± 5.0 nmol/mg/min in [4] (Males, T3: phenobarbital 50 mg/kg intraperitoneal daily 4 days, 1000 μM substrate).

As to `COC(=O)N[C@H](C(=O)N[C@@H](Cc1ccccc1)[C@@H](O)CN(Cc1ccc(-c2ccccn2)cc1)NC(=O)[C@@H](NC(=O)OC)C(C)(C)C)C(C)(C)C` [atazanavir, Atazanavir], the “inhibition of bilirubin conjugation” value (in series [7]; at UGT1A1 isoform) was “inhibits bilirubin conjugation in the micromolar range” in each case. For the same compound, in series [8], the “subjects exhibiting unconjugated hyperbilirubinemia” value is 57%.

Take `CC(C)(C)NC(=O)[C@@H]1CN(Cc2cccnc2)CCN1C[C@@H](O)C[C@@H](Cc1ccccc1)C(=O)N[C@H]1c2ccccc2C[C@H]1O` [indinavir, Indinavir]: the “inhibition of bilirubin-conjugating activity” value in [9] is recorded as “direct inhibition of bilirubin-conjugating activity”.
